From patent publication US11505782B2 (priority 2018, dated 2022)
Where “and” joins values, the source holds several entries; their conditions need not be identical. Identical values can stand only once. Like-named read-outs stand apart in the source and are kept apart here.

Legend:
[1] = tested on: JAK1/JAK2; type: cell-based, human
[2] = tested on: PC3 human prostate cancer cells; type: cell-based
[3] = biological target: T1, complement C3 (Homo sapiens, UniProt P01024); type: cell-based; details: 72 h
[4] = tested on: PC3 human prostate cancer cells; type: cell-based; remark: listed apart in the source
[5] = biological target: T1, complement C3; type: cell-based; details: 48 h

T1 sequence (P01024 672-1663): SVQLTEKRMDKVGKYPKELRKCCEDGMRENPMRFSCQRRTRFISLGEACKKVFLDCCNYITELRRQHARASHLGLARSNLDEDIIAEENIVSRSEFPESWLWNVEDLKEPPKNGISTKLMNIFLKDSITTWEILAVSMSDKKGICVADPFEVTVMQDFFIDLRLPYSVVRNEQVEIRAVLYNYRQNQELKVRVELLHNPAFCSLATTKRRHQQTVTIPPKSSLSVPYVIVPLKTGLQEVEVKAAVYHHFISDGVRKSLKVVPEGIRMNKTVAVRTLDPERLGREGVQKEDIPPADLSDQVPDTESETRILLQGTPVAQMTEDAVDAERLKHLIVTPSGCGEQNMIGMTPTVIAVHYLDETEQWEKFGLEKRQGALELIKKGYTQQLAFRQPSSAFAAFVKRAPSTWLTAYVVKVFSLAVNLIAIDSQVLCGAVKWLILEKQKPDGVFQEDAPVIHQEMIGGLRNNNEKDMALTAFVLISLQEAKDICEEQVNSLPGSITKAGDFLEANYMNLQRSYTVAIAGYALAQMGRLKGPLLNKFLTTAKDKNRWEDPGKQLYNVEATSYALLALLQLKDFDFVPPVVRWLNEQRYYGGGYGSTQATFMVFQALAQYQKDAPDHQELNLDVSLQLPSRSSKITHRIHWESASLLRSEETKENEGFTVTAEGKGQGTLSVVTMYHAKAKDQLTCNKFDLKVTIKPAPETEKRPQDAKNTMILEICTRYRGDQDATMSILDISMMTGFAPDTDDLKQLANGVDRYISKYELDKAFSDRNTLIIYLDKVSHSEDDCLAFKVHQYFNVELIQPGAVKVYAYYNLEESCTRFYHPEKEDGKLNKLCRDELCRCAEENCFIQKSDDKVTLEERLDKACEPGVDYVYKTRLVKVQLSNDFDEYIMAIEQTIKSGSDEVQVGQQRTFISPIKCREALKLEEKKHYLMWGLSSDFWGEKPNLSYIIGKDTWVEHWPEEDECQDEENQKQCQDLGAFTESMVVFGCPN
T1 sequence (P01024 23-667): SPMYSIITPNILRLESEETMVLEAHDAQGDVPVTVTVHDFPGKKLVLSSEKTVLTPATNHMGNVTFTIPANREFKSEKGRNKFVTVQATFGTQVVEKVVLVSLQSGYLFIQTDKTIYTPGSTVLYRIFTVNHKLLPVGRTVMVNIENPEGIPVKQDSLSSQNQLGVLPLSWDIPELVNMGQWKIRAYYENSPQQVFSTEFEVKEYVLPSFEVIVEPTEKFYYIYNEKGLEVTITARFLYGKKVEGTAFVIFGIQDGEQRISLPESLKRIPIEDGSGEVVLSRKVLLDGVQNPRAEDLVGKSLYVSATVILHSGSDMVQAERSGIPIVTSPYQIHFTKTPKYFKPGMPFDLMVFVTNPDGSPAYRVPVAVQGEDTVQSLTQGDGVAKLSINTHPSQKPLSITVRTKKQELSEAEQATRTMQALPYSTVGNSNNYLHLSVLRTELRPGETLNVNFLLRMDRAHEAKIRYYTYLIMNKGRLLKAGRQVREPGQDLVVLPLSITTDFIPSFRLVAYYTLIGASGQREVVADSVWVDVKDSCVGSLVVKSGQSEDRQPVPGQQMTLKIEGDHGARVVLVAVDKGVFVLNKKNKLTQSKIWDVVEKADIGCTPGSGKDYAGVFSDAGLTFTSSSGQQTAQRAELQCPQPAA

SMILES | Average Fluorescence Intensity Density [1] | Average Fluorescence Intensity Density [2] | % Increase in Fluorescence [3] [%] | Average Fluorescence Intensity Density [3] | increase of fluorescent signal compared to control cells [3] [%] | increase of fluorescence intensity (partial reversal of complement-mediated suppression of virus spreading) [4] [%] | Average Fluorescence Intensity Density ([4]; 48 h) | Average Fluorescence Intensity Density [5] | increase of fluorescence intensity vs serum only control [5] [%]
N#CC[C@H](C1CCCC1)n1cc(-c2ncnc3[nH]ccc23)cn1 [Ruxolitinib] | 0.074 and 0.0755 and 0.0735 | 3.8 and 6.0 | – | – | – | – | – | – | –
CC[C@H](C)[C@H](N)C(=O)N[C@H]1CSSC[C@@H](C(=O)N[C@H](C(N)=O)[C@@H](C)O)NC(=O)[C@H](CCCN=C(N)N)NC(=O)[C@H](Cc2cnc[nH]2)NC(=O)[C@H](Cc2cnc[nH]2)NC(=O)CNC(=O)[C@H](Cc2c[nH]c3ccccc23)NC(=O)[C@H](CC(=O)O)NC(=O)[C@H](CCC(N)=O)NC(=O)[C@H](C(C)C)NC(=O)[C@H](C(C)C)NC1=O [compstatin] | – | – | 50 | 0.09 | 50 | 28.5 | 36.4 | 0.0945 and 0.0670 and 0.0920 | 27.7
